According to patent US12630536B2, “Cyanotriazine derivative, preparation method therefor, and application thereof” (Chengdu Fanxi Biopharma Co., LTD., priority 2020, dated 2026):

What was measured:
[1] = target: T1, THR-α ligand-binding domain (H6-THR-α) (Homo sapiens, UniProt P10827); test: Co-activated peptide recruitment test of THR-α/RXR/GRIP1 (TR_LBD agonist detection, HTRF); type: biochemical
T1 construct: made in house; host or cells: Escherichia coli BL21 (DE3), vector pET28a
T1 sequence (P10827 148-410 isoform P10827-2 limits assumed): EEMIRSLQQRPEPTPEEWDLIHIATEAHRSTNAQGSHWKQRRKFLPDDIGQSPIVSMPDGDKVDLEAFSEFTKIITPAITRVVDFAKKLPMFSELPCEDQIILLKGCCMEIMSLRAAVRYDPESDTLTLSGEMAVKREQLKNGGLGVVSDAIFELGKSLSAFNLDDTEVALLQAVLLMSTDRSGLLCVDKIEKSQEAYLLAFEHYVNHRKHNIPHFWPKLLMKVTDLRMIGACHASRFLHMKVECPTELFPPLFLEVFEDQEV
T1 sequence (P19793 225-462 partner limits assumed): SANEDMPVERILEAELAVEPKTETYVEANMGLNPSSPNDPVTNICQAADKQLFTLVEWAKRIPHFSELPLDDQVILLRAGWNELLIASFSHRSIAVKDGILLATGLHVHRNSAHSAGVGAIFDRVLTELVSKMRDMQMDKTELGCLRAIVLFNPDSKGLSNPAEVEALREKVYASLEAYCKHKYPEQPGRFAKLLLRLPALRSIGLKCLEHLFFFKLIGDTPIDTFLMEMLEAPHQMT
T1 sequence (Q15596 679-703 partner limits assumed): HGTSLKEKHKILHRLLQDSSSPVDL
Procedure: (§1) A ligand binding domain of THR-β (amino acids 148-410) (H6-THR-β) and a ligand binding domain of THR-α (amino acids 202-461) (H6-TRα) were cloned into E. coli expression vector pET28a (Novagen, Milwaukee, Wis.) containing N-terminal six His sequences. The resulting recombinant six-His-tagged protein was produced in E. coli BL21(DE3) cells. The cells were grown in Terrific Broth (self-used self-prepared Bacto tryptone (3.3%, w/v), Difico yeast extract (2.0%, w/v) and NaCl (0.5%, w/v) medium), incubated at 25° C. for 24 hours using a shake flask in 0.2 mM IPTG, harvested or dissolved with 5 volumes of buffer A (0.05 M Tris, 0.3 M NaCl, 1% W/V betaine, 0.01 M imidazole, 0.02 M b-mercaptoethanol, pH 8.0). Lysozyme (1.0 mg/ml, Sigma) and CompleteProtease Inhibitor Cocktail (Roche Diagnostics Gmbh) were added to the slurry and the solution was sonicated for one minute and 5 times at 4° C. The suspension was centrifuged at 127,300 RCF for 2 hours in a Ti45 Beckmann rotor and the supernatant was loaded onto an NI NTAAgarose (Quigen 30210) column. After washing with the buffer A, […] or H6-THR-α was eluted with the buffer A containing 0.25 M imidazole.
(§2) 30 microliters of H6-THR-β (50 nM) or H6-THR-α in 50 mM Hepes, pH 7.0, 1 mM DTT, 0.05% NP40 and 0.2 mg/ml BSA (binding buffer) were mixed with an equal volume of EE-RxRα (50 nM) in the binding buffer. […] Aliquot ([…]) was transferred to a 384-well black microtiter plate. HTRF signal was read on a Victor5 reader (PerkinElmer Life and Analytical Sciences). EC50 was calculated.
(§3) Gene clones expressing a ligand-binding domain (amino acids 148-410) of THR-β (H6-THR-β) and a ligand-binding domain (amino acids 202-461) of THR-α (H6-THR-α) were inserted into an Escherichia coli expression vector pET28a, and the expression vector contained one N-terminal 6-His sequence. The expression vector was introduced into an Escherichia coli BL21 (DE3) strain to produce a recombinant protein with a His tag. […] After finishing culturing, a bacterium in culture was collected, and the collected bacterium was resuspended with a lysis solution (0.05 M Tris, 0.3 M NaCl, 1% W/V betaine, 0.01 M imidazole, 0.02 M β-mercaptoethanol, and pH 8.0) with a volume 5 times that of the bacterium, and lysozyme and protease inhibitors were added at the same time, the treated bacteria was subjected to ultrasonic lysis (5 times per minute) in ice bath (4° C.). A lysed suspension was centrifuged at 127300 RCF for 2 hours, a supernatant was loaded on a NI_NTA agarose (Quigen 30210) column, and after washing with a buffer A, an H6-TRβ or H6-TRα protein was eluted with the buffer A containing 0.25 M imidazole.
(§4) A human retinol X receptor (amino acid 225-462) (RxRα) was subjected to engineering modification, so that an N-terminal of the human retinol X receptor had His6 and EE(EFMPME) tags, and then the human retinol X receptor was cloned into a pACYC vector, and produced a His6 EEtagged protein in Escherichia coli. IPTG with a final concentration of 0.1 mM was added into the culture medium for induction, and cultured in a shaking flask at 18° C. for 18 hours. After finishing culturing, a bacterium in culture was collected, and the collected bacterium was re-suspended with a lysis solution (0.05 M Tris, 0.3 M NaCl, 1% W/V betaine, 0.01 M imidazole, 0.02 β-mercaptoethanol, and pH 8.0) with a volume 5 times that of the bacterium, lysozyme and protease inhibitors were added at the same time, and stirred at 4° C. for 30 minutes. Then, a suspension was subjected to an ultrasonic treatment at 4° C. for 30 seconds for 5 times. The suspension was collected, and centrifuged at 12000 RCF for 20 minutes. A supernatant was collected, and the supernatant was filtered with a membrane with a pore size of 0.45 μm, and then added with 0.5% NP-40.

[2] = target: T2, THR-β ligand-binding domain (H6-THR-β) (Homo sapiens, UniProt P10828); test: Co-activated peptide recruitment test of THR-β/RXR/GRIP1 (TR_LBD agonist detection, HTRF); type: biochemical
T2 construct: made in house; host or cells: Escherichia coli BL21 (DE3), vector pET28a
T2 sequence (P10828 217-461 limits assumed): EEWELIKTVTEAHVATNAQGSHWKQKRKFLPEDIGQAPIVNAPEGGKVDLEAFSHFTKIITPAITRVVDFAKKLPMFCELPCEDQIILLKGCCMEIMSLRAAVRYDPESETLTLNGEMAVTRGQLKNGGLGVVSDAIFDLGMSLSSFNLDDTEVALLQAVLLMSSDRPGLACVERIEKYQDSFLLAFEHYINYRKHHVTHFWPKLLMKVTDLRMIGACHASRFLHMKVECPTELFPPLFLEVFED
T2 sequence (P19793 225-462 partner limits assumed): T1 sequence (P19793 225-462 partner limits assumed)
T2 sequence (Q15596 679-703 partner limits assumed): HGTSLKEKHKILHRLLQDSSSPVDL
Procedure: as §1, §2, §3, §4

Cn1cnc2ccc(Oc3c(Br)cc(-n4nc(C#N)c(=O)[nH]c4=O)cc3Br)cc21 [Compound 1, 2-(3,5-dibromo-4-((1-methyl-1H-benzo[d]imidazol-6-yl)oxy)phenyl)-3,5-dioxo-2,3,4,5-tetra hydro-1,2,4-triazine-6-carbonitrile]
EC50 ([1]; Detection of TR_LBD agonist, read-out: TR_α_EC50): 35.3 nM
Maximum activity ratio (A520/A495) ([1]; TR_LBD agonist, TR_α): 3.83
Measurement of cpd/T3 (maximum ratio) ([1]; TR_LBD agonist, TR_α, maximum relative to T3): 71.1%
EC50 ([2]; Detection of TR_LBD agonist, read-out: TR_beta_EC50): 4.96 nM
Maximum activity ratio (A520/A495) ([2]; TR_LBD agonist, TR_β): 4.02
Measurement of cpd/T3 (maximum ratio) ([2]; TR_LBD agonist, TR_β, maximum relative to T3): 73.4%
α/β ([2]; TR_LBD agonist, ratio TR_α EC50 / TR_β EC50): 7.13
